Measured values reported in ChEMBL document CHEMBL1201862, “PubChem BioAssay data set” (2004).
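Tested at 5 concentrations; 48 h exposure; 96-well plates; endpoints linearly interpolated, else capped at highest concentration. The concentration for 50% growth inhibition is given as GI50.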 Calls of active or inactive are those of the source. Rule as the data show it: active = GI50 up to about 1.1 µM and inactive = higher.

Tests used:
Assay in all cases: NCI-60 cell line screen, 48 h
BT-549 = test system: BT-549
EKVX = test system: EKVX
HCC 2998 = test system: HCC 2998
HCT-15 = test system: HCT-15
HL-60 = test system: HL-60
HOP-62 = test system: HOP-62
HOP-92 = test system: HOP-92
Hs-578T = test system: Hs-578T
K562 = test system: K562
MCF7 = test system: MCF7
MDA-MB-231 = test system: MDA-MB-231
NCI-H226 = test system: NCI-H226
NCI-H522 = test system: NCI-H522
NCI/ADR-RES = test system: NCI/ADR-RES
OVCAR-5 = test system: OVCAR-5
SF-539 = test system: SF-539
SK-MEL-5 = test system: SK-MEL-5
SNB-75 = test system: SNB-75
SW-620 = test system: SW-620
UO-31 = test system: UO-31

COc1ccc(/N=N/C(=NNC(=O)c2ccc(C)cc2)c2ccc(N(C)C)cc2)cc1
GI50 (BT-549): 27.7 µM (inactive)
GI50 (EKVX): 37.7 µM (inactive)
GI50 (HCC 2998): 35.3 µM (inactive)
GI50 (HCT-15): 32.4 µM
GI50 (HL-60): 2.32 µM (inactive)
GI50 (HOP-62): 49.1 µM (inactive)
GI50 (HOP-92): 41.5 µM (inactive)
GI50 (Hs-578T): > 100 µM (inactive)
GI50 (K562): 29.4 µM (inactive)
GI50 (MCF7): 17.1 µM (inactive)
GI50 (MDA-MB-231): 64.4 µM (inactive)
GI50 (NCI-H226): 39.8 µM (inactive)
GI50 (NCI-H522): 28.9 µM (inactive)
GI50 (NCI/ADR-RES): 33.8 µM (inactive)
GI50 (OVCAR-5): > 85.9 µM (inactive)
GI50 (SF-539): > 100 µM (inactive)
GI50 (SK-MEL-5): 27.2 µM (inactive)
GI50 (SNB-75): 87.3 µM (inactive)
GI50 (SW-620): 56.8 µM (inactive)
GI50 (UO-31): 52.2 µM (inactive)
